Results: US12312333B2, “SK channel positive allosteric modulators” (Chapman University, priority 2021, dated 2025)

What was measured:
[1] = target: T1, human KCa2.1 channel (Homo sapiens, UniProt P0DP23+Q92952); experiment: Inside-out patch-clamp on KCa2.1 channels expressed in HEK293 cells; type: cell-based; details: for response of KCa2.1 channels: inside-out patch; for Emax: normalized to 10 μM Ca2+
T1 construct: expressed in transfected cells; host or cells: HEK293
Experimental: The two newly synthesized compounds, 2o and 2q, were tested to determine whether they retained their subtype-selectivity. Neither 2o (FIG. 5A) nor 2q (FIG. 5B) elicited significant responses from the human KCa2.1 channel expressed in HEK293 cells. When compared with the responses from KCa2.2a channels to these two compounds, the differences became even more apparent (FIG. 5C), with the Emax values on KCa2.2a channels at ˜90%, whereas the Emax values on KCa2.1 channels were at ˜0% (FIG. 5D).
(§1) The effect of newly synthesized compounds on the KCa2.x/KCa3.1 channels was investigated as previously described (Nam, Y. W.; et al, Acta Physiol (Oxf) 2020, e13552; Nam, Y. W.; et al. Scientific reports 2018, 8 (1), 10749). Briefly, the rat KCa2.2a, human KCa2.1, human KCa2.3 or human KCa3.1 channels cDNA constructs were either generated in-house or through molecular cloning services (Genscript). The channel cDNAs, along with CaM and GFP, at a ratio of 7:4:2 (ORF ratios), were transfected into HEK293 cells by the calcium-phosphate method. KCa currents were recorded 1-2 days after transfection, with an Axon200B amplifier (Molecular Devices) at room temperature. The resistance of the patch electrodes ranged from 3-5 MΩ. The pipette solution contained (in mM): 140 KCl, 10 Hepes (pH 7.4), 1 MgSO4. The bath solution containing (in mM): 140 KCl, 10 Hepes (pH 7.2), 1 EGTA, 0.1 Dibromo-BAPTA, and 1 HEDTA was mixed with Ca^2+ to obtain the desired free Ca^2+ concentrations, calculated using the software by Chris Patton of Stanford University (https://somapp.ucdmc.ucdavis.edu/pharmacology/bers/maxchelator/webmaxc/webmaxcS.htm). […] Briefly, a standard curve was generated using the Ca^2+ buffers from the kit and a fluorescence Ca^2+ indicator. Then, the Ca^2+ concentrations of the bath solution were determined through interpolation on the standard curve.
(§2) High resistance seals (>1 GΩ) were formed before inside-out patches were obtained. […] Currents were recorded by repetitive 1-s-voltage ramps from −100 mV to +100 mV from a holding potential of 0 mV. […]
(§3) To measure the effect of CyPPA (Alomone Labs) and newly synthesized compounds, the intracellular face was exposed to bath solutions with 0.15 μM Ca^2+. One minute after switching of bath solutions, ten sweeps with a 1-s interval were recorded at a series of concentrations of compound in the presence of 0.15 μM Ca^2+. The maximal KCa2.x/KCa3.1 current in response to 10 μM Ca^2+ was then recorded.
Patch-clamp recordings were analyzed using Clampfit 10.5 (Molecular Devices LLC) and concentration-response curves were analyzed in GraphPad Prism 9.0.2 (GraphPad Software Inc.). […] EC50 values and Hill coefficients were determined by fitting the data points to a standard concentration-response curve (Y=100/(1+(X/EC50)^−Hill)). […]

[2] = target: T2, human KCa2.3 channels (Homo sapiens, UniProt P0DP23+Q9UGI6); experiment: Inside-out patch-clamp potentiation of KCa2.3 channels expressed in HEK293 cells; type: cell-based; details: for EC50: inside-out patch, HEK293, 0.15 μM Ca2+, read-out: EC50 on potentiating KCa2.3 channels
T2 construct: expressed in transfected cells; host or cells: HEK293
From the text: The effects of the two newly synthesized compounds on human KCa2.3 channels (FIG. 7A) were examined.
as §1, §2
as §3, with “recorded. […]” for “recorded.”

| Compound | response of KCa2.1 channels [1] | Emax [1] | potency on KCa2.3 compared to KCa2.2a channels [2] | EC50 [2] |
| --- | --- | --- | --- | --- |
| Cc1cc(Nc2ccc(F)c(Cl)c2)nc(-n2nc(C)cc2C)n1 [Compound 2o, N-(3-Chloro-4-fluorophenyl)-2-(3,5-dimethyl-1H-pyrazol-1-yl)-6-methyl-pyrimidin-4-amine] | Lack of response | ~0% | significantly smaller | 190 ± 23 nM |
| Cc1cc(Nc2cc(Cl)ccc2F)nc(-n2nc(C)cc2C)n1 [Compound 2q, N-(5-Chloro-2-fluorophenyl)-2-(3,5-dimethyl-1H-pyrazol-1-yl)-6-methylpyrimidin-4-amine] | Lack of response | ~0% |  | 600 ± 35 nM |
